According to US20260184675A1, “CHIRAL ISOMERIC SULFITE COMPOUND AND APPLICATION THEREOF” (Chengdu Hanova BioSciences Co., Ltd, priority 2024, published 2026):

What was measured:
[1] = tested on: eggs of Tetranychus urticae; experiment: Effect on hatching of eggs of Tetranychus urticae, leaf disc method; format: in vivo; conditions: 5 ppm; for Hatching rate (%): 5 days after insecticide delivery
Procedure: (§1) • (1) Preparation of leaf discs containing eggs: 20 female adult mites of Tetranychus cinnabarinus were transferred onto leaf discs of Vicia faba with a diameter of 2.0 cm (with wetted filter paper at the bottom), then covered it with a lidded culture dish and cultivated under moisturizing conditions, the adult mites were removed within 36 hours and microscopic examination and counting were performed on leaf discs containing eggs. • (2) Investigation of egg population base: Before pesticide soaking, a microscopic examination was conducted on the egg basic number of each leaf disc, with 2 replicates set for each treatment. • (3) Pesticide soaking treatment: The leaf butterflies loaded with mite eggs were soaked in clear water and sulfite compounds for 10 seconds, respectively, then taken out and cultivated under moisturizing conditions. Each treatment should be repeated for no less than 3 times. • (4) Cultivation and observation: The […] were cultivated under normal conditions. Five days after insecticide delivery, the hatching status of mite eggs was investigated. • Note: The temperature and humidity conditions of the constant temperature and humidity incubator after the treatment should be controlled so as to avoid excessive temperature differences, which may cause generation and dripping of condensate water in the culture dish, resulting in abnormal death of eggs due to soaking in water; it is also necessary to ensure sufficient strong ambient light, without directing irradiating the leaves. • (5) Survey of Results: The experimental materials of each treatment group were regularly hydrated and moisturized, and the hatching of eggs was observed. On the 7th day after insecticide delivery, the number of hatched eggs for each treatment was recorded, and the survey of results was recorded in the original notebook. According to the experimental requirements and characteristics of agents, the survey time can be shortened or extended.
(§2) • 1) Surveying and recording the number of hatched eggs for each treatment. • 2) Photographing and recording whether there was any pesticide damage to the leaf discs of Vicia faba. • 3) Recording the developmental status of experimental mite eggs, behavior status of nymph mites, including abnormal phenomena such as delayed or stopped development of mite eggs, difficulty in breaking hull for nymph mites, or painful struggles after hatching, etc. • (6) Calculation method: Based on the survey data, the prevention and control effect of each treatment was calculated according to the following formula, and the calculation results were kept to two decimal places.
This test adopted the method in Test Example 1 of technical section, mainly used leaf disc method to explore the inhibitory effect on hatching of eggs of Tetranychus urticae by compounds 1-(S,S), 1-(S,R), 1-(R,R), 1-(R,S), 1′-(S,S), 1′-(S,R), 1′-(R,R), 1′-(R,S), compound 1, compound 1′, S-10, R-10, S-10′, R-10′, compound 10, compound 10′, compound 19-(S,S), 19-(S,R), 19-(R,R), 19-(R,S), 19′-(S,S), 19′-(S,R), 19′-(R,R), 19′-(R,S), compound 19, and compound 19′. The concentration of all compounds was 5 ppm.

eggs of Aleyrodidae = experiment: Effect on hatching of eggs of Aleyrodidae, leaf disc method; format: in vivo; conditions: 10 ppm; for Hatching rate (%), Replicate 1 / Hatching rate (%), Replicate 2 / Hatching rate (%), Replicate 3 / Number of hatched larvae 5 days after insecticide delivery, Replicate 1 / Number of hatched larvae 5 days after insecticide delivery, Replicate 2 / Number of hatched larvae 5 days after insecticide delivery, Replicate 3: Aleyrodidae eggs; for Hatching rate (%), Replicate 1 / Hatching rate (%), Replicate 2 / Hatching rate (%), Replicate 3: 5 days after delivery; for Number of hatched larvae 5 days after insecticide delivery, Replicate 1 / Number of hatched larvae 5 days after insecticide delivery, Replicate 2 / Number of hatched larvae 5 days after insecticide delivery, Replicate 3: leaf disc
Procedure: as §1, §2
This test adopted the method in Test Example 1 of technical section, mainly used leaf disc method to explore the inhibitory effect on hatching of eggs of Aleyrodidae by compounds 1-(S,S), 1-(S,R), 1-(R,R), 1-(R,S), 1′-(S,S), 1′-(S,R), 1′-(R,R), 1′-(R,S), compound 1, compound 1′, S-10, R-10, S-10′, R-10′, compound 10, compound 10′, compound 19-(S,S), 19-(S,R), 19-(R,R), 19-(R,S), 19′-(S,S), 19′-(S,R), 19′-(R,R), 19′-(R,S), compound 19, and compound 19′. The concentration of all compounds was 10 ppm.

[2] = Replicate 1, listed as 19′-(S, R)
[3] = Replicate 2, listed as 19′-(S, R)
[4] = Replicate 1, listed as 19′-(S, S)
[5] = Replicate 2, listed as 19′-(S, S)

With `CC[C@H](COS(=O)OCCF)Oc1ccc(Cl)cc1Cl` (stereo partly drawn) [19′-(R,S)] the “Hatching rate (%)” value ([1]; Replicate 1) was 12.66%, the “Hatching rate (%)” value ([1]; Replicate 2) was 13.25% and the “Number of hatched larvae 5 days after insecticide delivery” value ([1]; Replicate 1) was 10. For the same compound, the “Number of hatched larvae 5 days after insecticide delivery” value ([1]; Replicate 2) was 11, the “Hatching rate (%), Replicate 1” value (eggs of Aleyrodidae) was 10.32% and the “Hatching rate (%), Replicate 2” value (eggs of Aleyrodidae) was 9.40%. The “Hatching rate (%), Replicate 3” value (eggs of Aleyrodidae) was 11.49%, the “Number of hatched larvae 5 days after insecticide delivery, Replicate 1” value (from here on “Number of hatched larvae 5 days … Replicate 1”) (eggs of Aleyrodidae) was 13 and the “Number of hatched larvae 5 days after insecticide delivery, Replicate 2” value (shortened to “Number of hatched larvae 5 days … Replicate 2”) (eggs of Aleyrodidae) was 11. The “Number of hatched larvae 5 days after insecticide delivery, Replicate 3” value (“Number of hatched larvae 5 days … Replicate 3” below) (eggs of Aleyrodidae) was 10.
`CC[C@@H](COS(=O)OCCF)Oc1ccc(Cl)cc1Cl` (stereo partly drawn) [19′-(S,R)] was tested, and the “Hatching rate (%)” value [1, 2] was 10.81%, the “Hatching rate (%)” value [1, 3] was 11.49% and the “Number of hatched larvae 5 days after insecticide delivery” value [1, 2] was 12. For the same compound, the “Number of hatched larvae 5 days after insecticide delivery” value [1, 3] was 10, the “Hatching rate (%), Replicate 1” value (eggs of Aleyrodidae; listed as 19′-(S, R)) was 10.53% and the “Hatching rate (%), Replicate 2” value (eggs of Aleyrodidae; listed as 19′-(S, R)) was 10.24%. The “Hatching rate (%), Replicate 3” value (eggs of Aleyrodidae; listed as 19′-(S, R)) was 10.20%, the “Number of hatched larvae 5 days … Replicate 1” value (eggs of Aleyrodidae; listed as 19′-(S, R)) was 10 and the “Number of hatched larvae 5 days … Replicate 2” value (eggs of Aleyrodidae; listed as 19′-(S, R)) was 13. The “Number of hatched larvae 5 days … Replicate 3” value (eggs of Aleyrodidae; listed as 19′-(S, R)) was 10.
With `CC[C@@H](COS(=O)OCCF)Oc1ccc(Cl)cc1Cl` (stereo partly drawn) [19′-(S,S)] the “inhibitory activity on the hatching of eggs of Tetranychus urticae (in words)” value [1] was “strong inhibitory activities”, the “Hatching rate (%)” value [1, 4] was 0.00% and the “Hatching rate (%)” value [1, 5] was 0.00%. The “Number of hatched larvae 5 days after insecticide delivery” value [1, 4] was 0, the “Number of hatched larvae 5 days after insecticide delivery” value [1, 5] was 0 and the “inhibitory activity on the hatching of eggs of Aleyrodidae (in words)” value (from here on “inhibitory activity … of Aleyrodidae (in words)”) (eggs of Aleyrodidae) was “strong inhibitory activities”. For the same compound, the “Hatching rate (%), Replicate 1” value (eggs of Aleyrodidae; listed as 19′-(S, S)) was 0.00%, the “Hatching rate (%), Replicate 2” value (eggs of Aleyrodidae; listed as 19′-(S, S)) was 0.00% and the “Hatching rate (%), Replicate 3” value (eggs of Aleyrodidae; listed as 19′-(S, S)) was 0.00%. The “Number of hatched larvae 5 days … Replicate 1” value (eggs of Aleyrodidae; listed as 19′-(S, S)) was 0, the “Number of hatched larvae 5 days … Replicate 2” value (eggs of Aleyrodidae; listed as 19′-(S, S)) was 0 and the “Number of hatched larvae 5 days … Replicate 3” value (eggs of Aleyrodidae; listed as 19′-(S, S)) was 0.
For `CC(COc1ccc(Cl)cc1Cl)OS(=O)OCCF` (stereo not drawn) [Compound 1′], the “inhibitory activity on the hatching of eggs of Tetranychus urticae (in words)” value [1] was “strong inhibitory activities”, the “Hatching rate (%)” value ([1]; Replicate 1) was 0.00% and the “Hatching rate (%)” value ([1]; Replicate 2) was 1.98%. For the same compound, the “Number of hatched larvae 5 days after insecticide delivery” value ([1]; Replicate 1) was 0, the “Number of hatched larvae 5 days after insecticide delivery” value ([1]; Replicate 2) was 2 and the “inhibitory activity … of Aleyrodidae (in words)” value (eggs of Aleyrodidae) was “strong inhibitory activities”. The “Hatching rate (%), Replicate 1” value (eggs of Aleyrodidae) was 1.87%, the “Hatching rate (%), Replicate 2” value (eggs of Aleyrodidae) was 0.00% and the “Hatching rate (%), Replicate 3” value (eggs of Aleyrodidae) was 1.14%. For the same compound, the “Number of hatched larvae 5 days … Replicate 1” value (eggs of Aleyrodidae) was 2, the “Number of hatched larvae 5 days … Replicate 2” value (eggs of Aleyrodidae) was 0 and the “Number of hatched larvae 5 days … Replicate 3” value (eggs of Aleyrodidae) was 1.
For `CC(C)(COS(=O)OCCF)Oc1ccc(Cl)cc1Cl` (stereo not drawn) [Compound 10′], the “inhibitory activity on the hatching of eggs of Tetranychus urticae (in words)” value [1] was “strong inhibitory activities”, the “Hatching rate (%)” value ([1]; Replicate 1) was 1.18% and the “Hatching rate (%)” value ([1]; Replicate 2) was 1.10%. The “Number of hatched larvae 5 days after insecticide delivery” value ([1]; Replicate 1) was 1, the “Number of hatched larvae 5 days after insecticide delivery” value ([1]; Replicate 2) was 1 and the “inhibitory activity … of Aleyrodidae (in words)” value (eggs of Aleyrodidae) was “strong inhibitory activities”. For the same compound, the “Hatching rate (%), Replicate 1” value (eggs of Aleyrodidae) was 2.02%, the “Hatching rate (%), Replicate 2” value (eggs of Aleyrodidae) was 0.97% and the “Hatching rate (%), Replicate 3” value (eggs of Aleyrodidae) was 1.05%. The “Number of hatched larvae 5 days … Replicate 1” value (eggs of Aleyrodidae) was 2, the “Number of hatched larvae 5 days … Replicate 2” value (eggs of Aleyrodidae) was 1 and the “Number of hatched larvae 5 days … Replicate 3” value (eggs of Aleyrodidae) was 1.
With `CCC(COS(=O)OCCF)Oc1ccc(Cl)cc1Cl` (stereo not drawn) [Compound 19′] the “inhibitory activity on the hatching of eggs of Tetranychus urticae (in words)” value [1] was “strong inhibitory activities”, the “Hatching rate (%)” value ([1]; Replicate 1) was 1.14% and the “Hatching rate (%)” value ([1]; Replicate 2) was 1.92%. For the same compound, the “Number of hatched larvae 5 days after insecticide delivery” value ([1]; Replicate 1) was 1, the “Number of hatched larvae 5 days after insecticide delivery” value ([1]; Replicate 2) was 2 and the “inhibitory activity … of Aleyrodidae (in words)” value (eggs of Aleyrodidae) was “strong inhibitory activities”. For the same compound, the “Hatching rate (%), Replicate 1” value (eggs of Aleyrodidae) was 0.00%, the “Hatching rate (%), Replicate 2” value (eggs of Aleyrodidae) was 0.00% and the “Hatching rate (%), Replicate 3” value (eggs of Aleyrodidae) was 0.00%. For the same compound, the “Number of hatched larvae 5 days … Replicate 1” value (eggs of Aleyrodidae) was 0, the “Number of hatched larvae 5 days … Replicate 2” value (eggs of Aleyrodidae) was 0 and the “Number of hatched larvae 5 days … Replicate 3” value (eggs of Aleyrodidae) was 0.
In the case of `CC(C)(COc1ccc(Cl)cc1Cl)OS(=O)OCCF` (stereo not drawn) [Compound R-10], the “Hatching rate (%)” value ([1]; Replicate 1) was 18.06%, the “Hatching rate (%)” value ([1]; Replicate 2) was 16.13% and the “Number of hatched larvae 5 days after insecticide delivery” value ([1]; Replicate 1) was 13. The “Number of hatched larvae 5 days after insecticide delivery” value ([1]; Replicate 2) was 15, the “Hatching rate (%), Replicate 1” value (eggs of Aleyrodidae) was 9.79% and the “Hatching rate (%), Replicate 2” value (eggs of Aleyrodidae) was 9.42%. For the same compound, the “Hatching rate (%), Replicate 3” value (eggs of Aleyrodidae) was 9.92%, the “Number of hatched larvae 5 days … Replicate 1” value (eggs of Aleyrodidae) was 14 and the “Number of hatched larvae 5 days … Replicate 2” value (eggs of Aleyrodidae) was 13. For the same compound, the “Number of hatched larvae 5 days … Replicate 3” value (eggs of Aleyrodidae) was 12.
For `CC(C)(COc1ccc(Cl)cc1Cl)OS(=O)OCCF` (stereo not drawn) [Compound S-10], the “inhibitory activity on the hatching of eggs of Tetranychus urticae (in words)” value [1] was “strong inhibitory activities”, the “Hatching rate (%)” value ([1]; Replicate 1) was 0.00% and the “Hatching rate (%)” value ([1]; Replicate 2) was 0.00%. The “Number of hatched larvae 5 days after insecticide delivery” value ([1]; Replicate 1) was 0, the “Number of hatched larvae 5 days after insecticide delivery” value ([1]; Replicate 2) was 0 and the “inhibitory activity … of Aleyrodidae (in words)” value (eggs of Aleyrodidae) was “strong inhibitory activities”. For the same compound, the “Hatching rate (%), Replicate 1” value (eggs of Aleyrodidae) was 0.00%, the “Hatching rate (%), Replicate 2” value (eggs of Aleyrodidae) was 0.00% and the “Hatching rate (%), Replicate 3” value (eggs of Aleyrodidae) was 0.00%. For the same compound, the “Number of hatched larvae 5 days … Replicate 1” value (eggs of Aleyrodidae) was 0, the “Number of hatched larvae 5 days … Replicate 2” value (eggs of Aleyrodidae) was 0 and the “Number of hatched larvae 5 days … Replicate 3” value (eggs of Aleyrodidae) was 0.
